According to PubChem BioAssay AID278 (DTP/NCI, 2004):
Records with an inconclusive call do not appear.

Tested on: nude mice, A549 intrarenal xenograft, tumor weight change
Assay: NCI In Vivo Anticancer Drug Screen. Data for tumor model A549 Human Adenocarcinoma of Lung with characteristics of Type II Alveolar Epithelial cells (intrarenal inoculation) in NU/NU BALB/C (nude) mice
Conditions: endpoint: mean tumor weight change, schedule: Q04DX003 (ip), higher = larger tumour
Experimental: The antitumor activity of compounds was measured in mice bearing transplantable tumors. Survival or tumor size were measured and the results are expressed as the measurement made in the treated group (T) divided by the measurement made in the vehicle treated control group (C). The tumor model used in this assay is A549 Human Adenocarcinoma of Lung with characteristics of Type II Alveolar Epithelial cells (intrarenal inoculation) in NU/NU BALB/C (nude) mice

[1] = dose: 50.0 mg/kg/injection, vehicle: saline with Tween-80
[2] = dose: 100.0 mg/kg/injection, vehicle: saline with Tween-80
[3] = dose: 200.0 mg/kg/injection, vehicle: saline with Tween-80
[4] = dose: 150.0 mg/kg/injection, vehicle: suspension in saline
[5] = dose: 300.0 mg/kg/injection, vehicle: suspension in saline
[6] = dose: 150.0 mg/kg/injection, vehicle: Klucel (hydroxypropylcellulose) (HPC)
[7] = dose: 150.0 mg/kg/injection, vehicle: saline with Tween-80
[8] = dose: 300.0 mg/kg/injection, vehicle: saline with Tween-80
[9] = dose: 25.0 mg/kg/injection, vehicle: saline with Tween-80
[10] = dose: 600.0 mg/kg/injection, vehicle: Klucel (hydroxypropylcellulose) (HPC)
[11] = dose: 12.5 mg/kg/injection, vehicle: saline with Tween-80
[12] = dose: 25.0 mg/kg/injection, vehicle: water
[13] = dose: 50.0 mg/kg/injection, vehicle: water

NC(Cc1ccc(N(CCCl)Cc2ccccc2)cc1)C(=O)O (configuration not stated) was tested, and the T/C [1] was 74 % of control, the T/C [2] was 32 % of control and the T/C [3] was 38 % of control.
CC(=O)/C(=C\c1ccc(Cl)c(Cl)c1)C(=O)CCN(C)C was tested, and the T/C (dose: 12.5 mg/kg/injection, vehicle: saline) was 78 % of control, the T/C (dose: 25.0 mg/kg/injection, vehicle: saline) was 39 % of control and the T/C (dose: 50.0 mg/kg/injection, vehicle: saline) was 32 % of control.
In the case of c1cn[nH]c1, the T/C (dose: 113.9 mg/kg/injection, vehicle: saline) is reported as 93 % of control, the T/C (dose: 151.9 mg/kg/injection, vehicle: saline) is reported as 47 % of control and the T/C (dose: 202.5 mg/kg/injection, vehicle: saline) is reported as 63 % of control. For the same compound, the T/C (dose: 300.0 mg/kg/injection, vehicle: saline) was 46 % of control.
With Cc1cc(O)c2c(c1O)C(=O)C13C(=C2O)C(=O)C2C(O)C1C1C(O)C3C(=O)C3=C(O)c4c(O)cc(C)c(O)c4C(=O)C321 (configuration not stated) the T/C (dose: 1.0 mg/kg/injection, vehicle: saline with Tween-80) was 172 % of control and the T/C (dose: 2.0 mg/kg/injection, vehicle: saline with Tween-80) was 112 % of control.
In the case of Cc1ccc(C(=Nc2ccccc2)N=P(c2ccccc2)(c2ccccc2)c2ccccc2)cc1, the T/C [1] is reported as 90 % of control and the T/C [3] is reported as 82 % of control.
For O=c1[nH]cnc2c1nnn2C1OC(CO)C(O)C1O (configuration not stated), the T/C [4] was 83 % of control, the T/C [5] was 47 % of control and the T/C (dose: 600.0 mg/kg/injection, vehicle: suspension in saline) was 32 % of control. The T/C (dose: 1200.0 mg/kg/injection, vehicle: suspension in saline) was 38 % of control.
CC1=C[P+](c2ccccc2)(c2ccccc2)C=C(c2ccccc2)O1 was tested, and the T/C (dose: 1.0 mg/kg/injection, vehicle: suspension in saline) was 94 % of control, the T/C (dose: 2.0 mg/kg/injection, vehicle: suspension in saline) was 89 % of control and the T/C (dose: 8.0 mg/kg/injection, vehicle: suspension in saline) was 80 % of control.
CC(=O)C[n+]1ccc(C)cc1Sc1ccccc1C was tested, and the T/C [1] was 112 % of control and the T/C [2] was 44 % of control.
CNC(=O)N(C)N=NCCCl was tested, and the T/C [2] was -19 % of control and the T/C [3] was -66 % of control.
With ClC1(Cl)Cc2ccccc21 the T/C [1] was 119 % of control, the T/C [2] was 57 % of control and the T/C [3] was 119 % of control.
With COC1CC2C=C(C)/C=C/C=C/C(=O)NC(c3ccccc3)C/C=C/CCC(O)CC(=O)C2=C1O (configuration not stated) the T/C (dose: 37.5 mg/kg/injection, vehicle: Klucel (hydroxypropylcellulose) (HPC)) was 17 % of control, the T/C (dose: 75.0 mg/kg/injection, vehicle: Klucel (hydroxypropylcellulose) (HPC)) was 115 % of control and the T/C [6] was 113 % of control.
For Cc1c2ccccc2c(C)c2c1cc(C(=O)O)c1ccccc12, the T/C (dose: 37.5 mg/kg/injection, vehicle: saline with Tween-80) was 150 % of control, the T/C [7] was 113 % of control and the T/C [8] was 85 % of control.
In the case of CCCCOCN(COCCCC)C12CC3CC(CC(C3)C1)C2, the T/C [2] is reported as 123 % of control and the T/C (dose: 400.0 mg/kg/injection, vehicle: saline with Tween-80) is reported as 203 % of control.
With NC(=O)c1cc(Cl)nc2nc(Cl)nc(N)c12 the T/C [7] was 111 % of control, the T/C [8] was 89 % of control and the T/C (dose: 600.0 mg/kg/injection, vehicle: saline with Tween-80) was 55 % of control. The T/C (dose: 1200.0 mg/kg/injection, vehicle: saline with Tween-80) was 93 % of control.
CCOC(=O)C1=C(C)O/C(=C/c2cccc(Cl)c2)C1=O was tested, and the T/C [9] was 48 % of control, the T/C [1] was 51 % of control and the T/C [2] was 77 % of control. For the same compound, the T/C [3] was 18 % of control.
For Nc1nc2n[nH]nc2c(=O)[nH]1, the T/C (dose: 75.0 mg/kg/injection, vehicle: suspension in saline) was 45 % of control, the T/C [4] was 60 % of control and the T/C [5] was 22 % of control.
In the case of NC(=S)N/N=C/c1cc(=O)c2cc(Cl)ccc2o1, the T/C (dose: 75.0 mg/kg/injection, vehicle: DMSO) is reported as 66 % of control, the T/C (dose: 150.0 mg/kg/injection, vehicle: other) is reported as 15 % of control and the T/C (dose: 300.0 mg/kg/injection, vehicle: DMSO) is reported as 152 % of control. The T/C (dose: 300.0 mg/kg/injection, vehicle: other) was 29 % of control, the T/C (dose: 600.0 mg/kg/injection, vehicle: DMSO) was 150 % of control and the T/C (dose: 600.0 mg/kg/injection, vehicle: other) was 36 % of control.
CC(=O)NO was tested, and the T/C (dose: 150.0 mg/kg/injection, vehicle: water) was 83 % of control, the T/C (dose: 300.0 mg/kg/injection, vehicle: water) was 82 % of control and the T/C (dose: 600.0 mg/kg/injection, vehicle: water) was 109 % of control. The T/C (dose: 1200.0 mg/kg/injection, vehicle: water) was 66 % of control.
O=C1CC2(C(=O)N1CN1CCOCC1)c1ccccc1-c1ccccc12 was tested, and the T/C [6] was 36 % of control, the T/C (dose: 216.0 mg/kg/injection, vehicle: Klucel (hydroxypropylcellulose) (HPC)) was 21 % of control and the T/C (dose: 300.0 mg/kg/injection, vehicle: Klucel (hydroxypropylcellulose) (HPC)) was 28 % of control. The T/C (dose: 360.0 mg/kg/injection, vehicle: Klucel (hydroxypropylcellulose) (HPC)) was 23 % of control and the T/C [10] was 11 % of control.
With S=C(N/N=C1/CCCC/C1=N/NC(=S)N1CCOCC1)N1CCOCC1 the T/C (dose: 6.25 mg/kg/injection, vehicle: saline with Tween-80) was 71 % of control, the T/C [11] was 27 % of control and the T/C [9] was 37 % of control. For the same compound, the T/C [1] was 82 % of control.
With COc1ccc2c(c1)-c1nn(CCCN(C)C)c3ccc([N+](=O)[O-])c(c13)N2 the T/C (dose: 12.5 mg/kg/injection, vehicle: water) was 61 % of control, the T/C [12] was 81 % of control and the T/C [13] was 14 % of control. The T/C (dose: 100.0 mg/kg/injection, vehicle: water) was 27 % of control.
In the case of CC1OC2CC(O)C1(O)C1=C2C(O)=C(C(N)=O)C(=N)C1=O (configuration not stated), the T/C (dose: 0.63 mg/kg/injection, vehicle: saline + alcohol) is reported as 66 % of control, the T/C (dose: 1.25 mg/kg/injection, vehicle: saline + alcohol) is reported as 48 % of control and the T/C (dose: 2.5 mg/kg/injection, vehicle: saline + alcohol) is reported as 35 % of control. The T/C (dose: 5.0 mg/kg/injection, vehicle: saline + alcohol) was 94 % of control.
In the case of Oc1cccc2ccccc12, the T/C (dose: 37.5 mg/kg/injection, vehicle: water) is reported as 102 % of control and the T/C (dose: 75.0 mg/kg/injection, vehicle: water) is reported as 54 % of control.
In the case of CCOC1NC(=O)Oc2ccccc21 (configuration not stated), the T/C [6] is reported as 43 % of control and the T/C [10] is reported as 54 % of control.
CC(C)(C[NH-])C[NH-].[Cl][Pt+2][Cl] was tested, and the T/C (dose: 1.5 mg/kg/injection, vehicle: water) was 40 % of control, the T/C (dose: 3.0 mg/kg/injection, vehicle: water) was 70 % of control and the T/C (dose: 6.0 mg/kg/injection, vehicle: water) was 62 % of control. For the same compound, the T/C (dose: 12.0 mg/kg/injection, vehicle: water) was 52 % of control.
For O=[N+]([O-])c1ccc(N(CCO)CCO)c2c1no[n+]2[O-], the T/C [11] was 53 % of control, the T/C [9] was 83 % of control and the T/C [1] was 34 % of control.
CC1(O)C=CC(=O)C=C1 was tested, and the T/C [12] was 121 % of control and the T/C [13] was 100 % of control.
